Patent US9580442B2, “Tricyclic heterocyclic compounds as phosphoinositide 3-kinase inhibitors” (Karus Therapeutics Limited, priority 2009, dated 2017)
Where two headings read alike, the source gives them in different places.

Columns and labels:
PI3K p110α = PI3K p110α (Homo sapiens (Human), UniProt P42336); assay: PI3K isoform biochemical assay, p110α
PI3K p110β = PI3K p110β (Homo sapiens (Human), UniProt P42338); assay: PI3K isoform biochemical assay, p110β
PI3K p110δ = PI3K p110δ (Homo sapiens (Human), UniProt O00329); assay: PI3K isoform biochemical assay, p110δ
Sequence of PI3K p110δ (O00329 whole entry, canonical isoform): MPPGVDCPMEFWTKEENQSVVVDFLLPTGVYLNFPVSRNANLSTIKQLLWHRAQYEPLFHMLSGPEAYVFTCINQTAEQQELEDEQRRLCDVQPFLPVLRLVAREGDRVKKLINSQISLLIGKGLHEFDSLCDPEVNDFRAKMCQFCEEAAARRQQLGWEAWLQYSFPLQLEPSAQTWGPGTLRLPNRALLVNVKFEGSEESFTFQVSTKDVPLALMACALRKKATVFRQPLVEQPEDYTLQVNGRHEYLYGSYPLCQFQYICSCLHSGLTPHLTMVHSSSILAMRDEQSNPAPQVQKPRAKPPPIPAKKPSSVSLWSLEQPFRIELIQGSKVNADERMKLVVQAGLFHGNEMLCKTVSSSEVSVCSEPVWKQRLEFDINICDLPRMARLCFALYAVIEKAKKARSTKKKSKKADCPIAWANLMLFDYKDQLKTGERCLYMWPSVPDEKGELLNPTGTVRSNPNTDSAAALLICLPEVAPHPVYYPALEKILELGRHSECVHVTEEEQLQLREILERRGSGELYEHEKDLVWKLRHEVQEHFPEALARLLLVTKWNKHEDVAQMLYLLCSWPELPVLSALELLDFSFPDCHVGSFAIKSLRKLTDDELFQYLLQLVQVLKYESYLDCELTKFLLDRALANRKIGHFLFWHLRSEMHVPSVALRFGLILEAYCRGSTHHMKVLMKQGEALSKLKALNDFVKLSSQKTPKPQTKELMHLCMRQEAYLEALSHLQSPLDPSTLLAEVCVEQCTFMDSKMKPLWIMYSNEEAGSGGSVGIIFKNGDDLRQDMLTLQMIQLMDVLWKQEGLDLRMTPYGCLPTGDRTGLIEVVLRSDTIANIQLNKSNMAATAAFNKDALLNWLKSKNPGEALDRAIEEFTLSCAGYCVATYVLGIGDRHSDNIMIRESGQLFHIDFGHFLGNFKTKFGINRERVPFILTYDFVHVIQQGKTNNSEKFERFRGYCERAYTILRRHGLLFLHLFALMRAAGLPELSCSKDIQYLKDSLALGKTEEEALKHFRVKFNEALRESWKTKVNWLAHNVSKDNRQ
Sequence of PI3K p110δ (P27986 whole entry partner, canonical isoform): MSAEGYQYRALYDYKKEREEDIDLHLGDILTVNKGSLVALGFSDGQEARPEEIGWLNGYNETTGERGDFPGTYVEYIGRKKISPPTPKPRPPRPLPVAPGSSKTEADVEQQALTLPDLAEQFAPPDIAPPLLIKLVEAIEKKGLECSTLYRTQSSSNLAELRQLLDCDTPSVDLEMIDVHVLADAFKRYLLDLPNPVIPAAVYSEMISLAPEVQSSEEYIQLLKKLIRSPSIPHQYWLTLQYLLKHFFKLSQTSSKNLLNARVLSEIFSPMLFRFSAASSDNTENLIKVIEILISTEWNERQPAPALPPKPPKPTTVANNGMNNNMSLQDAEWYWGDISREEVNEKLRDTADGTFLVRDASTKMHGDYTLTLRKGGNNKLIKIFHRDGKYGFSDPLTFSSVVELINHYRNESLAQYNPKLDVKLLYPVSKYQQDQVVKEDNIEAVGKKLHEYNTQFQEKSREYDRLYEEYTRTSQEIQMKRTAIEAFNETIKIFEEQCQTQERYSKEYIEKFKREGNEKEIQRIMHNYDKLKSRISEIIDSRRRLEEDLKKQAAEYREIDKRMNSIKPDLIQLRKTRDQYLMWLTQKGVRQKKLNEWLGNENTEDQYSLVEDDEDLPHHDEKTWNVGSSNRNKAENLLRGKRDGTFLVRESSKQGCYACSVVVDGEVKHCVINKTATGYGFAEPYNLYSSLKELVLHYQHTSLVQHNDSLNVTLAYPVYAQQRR

PI3K p110γ = PI3K p110γ (Homo sapiens (Human), UniProt P48736); assay: PI3K isoform biochemical assay, p110γ
Sequence of PI3K p110γ (P48736 whole entry, canonical isoform): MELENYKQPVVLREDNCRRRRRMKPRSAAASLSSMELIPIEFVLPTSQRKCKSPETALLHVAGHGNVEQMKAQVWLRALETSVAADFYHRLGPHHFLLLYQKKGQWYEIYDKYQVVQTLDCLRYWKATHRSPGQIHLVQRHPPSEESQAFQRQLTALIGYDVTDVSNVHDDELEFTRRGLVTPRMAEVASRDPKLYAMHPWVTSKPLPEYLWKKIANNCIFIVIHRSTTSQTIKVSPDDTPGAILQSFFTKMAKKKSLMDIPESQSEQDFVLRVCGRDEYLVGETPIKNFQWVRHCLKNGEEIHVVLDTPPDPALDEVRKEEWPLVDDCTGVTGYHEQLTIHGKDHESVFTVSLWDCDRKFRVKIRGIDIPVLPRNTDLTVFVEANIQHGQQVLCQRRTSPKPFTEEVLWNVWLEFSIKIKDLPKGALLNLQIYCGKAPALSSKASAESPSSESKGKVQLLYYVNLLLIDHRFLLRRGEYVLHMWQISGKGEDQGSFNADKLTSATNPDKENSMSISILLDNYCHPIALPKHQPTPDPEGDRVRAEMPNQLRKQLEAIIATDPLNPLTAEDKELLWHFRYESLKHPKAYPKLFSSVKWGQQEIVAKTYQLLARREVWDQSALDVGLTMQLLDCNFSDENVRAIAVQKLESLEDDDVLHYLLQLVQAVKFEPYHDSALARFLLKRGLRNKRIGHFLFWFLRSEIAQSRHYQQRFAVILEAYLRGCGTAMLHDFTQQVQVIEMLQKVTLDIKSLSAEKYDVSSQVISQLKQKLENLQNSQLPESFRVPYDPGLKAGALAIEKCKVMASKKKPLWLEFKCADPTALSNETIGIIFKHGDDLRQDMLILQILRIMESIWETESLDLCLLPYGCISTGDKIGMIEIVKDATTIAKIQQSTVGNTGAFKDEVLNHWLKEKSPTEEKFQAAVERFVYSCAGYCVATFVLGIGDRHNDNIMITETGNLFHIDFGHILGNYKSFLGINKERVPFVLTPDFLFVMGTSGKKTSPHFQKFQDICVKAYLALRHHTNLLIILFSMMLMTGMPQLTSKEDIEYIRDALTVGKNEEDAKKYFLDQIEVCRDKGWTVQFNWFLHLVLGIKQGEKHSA

[1] = tested on: Rheumatoid Arthritis Synovial Fibroblast (RASF); assay: In vitro inhibition of rheumatoid arthritis synovial fibroblast (RASF) proliferation; format: cell-based
PC3 (Prostate Tumour) = assay: In vitro inhibition of tumour cell proliferation, PC3; format: cell-based
MCF7 (Breast Tumour) = assay: In vitro inhibition of tumour cell proliferation, MCF7; format: cell-based
A549 (Lung Tumour) = assay: In vitro inhibition of tumour cell proliferation, A549; format: cell-based
TNFα = assay: Inhibition of TNFα production from LPS-stimulated hPBMCs; format: cell-based, human; conditions: hPBMCs stimulated with LPS; for inhibition at 1 µM: Homo sapiens, read-out: % Inhibition of Proinflammatory Cytokine Production at 1 uM, TNFα
Experimental: (§1) 2) Anti-Inflammatory Activity: Inhibition of the Production of Pro-Inflammatory Cytokines from Stimulated Human Peripheral Blood Mononuclear Cells (hPBMCs)
(§2) Compounds were tested at a concentration of 1 uM for cytokine release inhibition in hPBMCs stimulated with LPS (TNFα), PHA (IFNγ) and anti-CD3 (IL-17A, IL-17F, IL-21, IL-23): […]

IFNγ = assay: Inhibition of IFNγ production from PHA-stimulated hPBMCs; format: cell-based, human; conditions: hPBMCs stimulated with PHA; for inhibition at 1 µM: Homo sapiens, read-out: % Inhibition of Proinflammatory Cytokine Production at 1 uM, IFNγ
Experimental: as §1, §2

IL-17A = assay: Inhibition of IL-17A production from anti-CD3-stimulated hPBMCs; format: cell-based, human; conditions: for inhibition at 1 µM: Homo sapiens, hPBMCs stimulated with anti-CD3, read-out: % Inhibition of Proinflammatory Cytokine Production at 1 uM, IL-17A
Experimental: as §1, §2

IL-17F = assay: Inhibition of IL-17F production from anti-CD3-stimulated hPBMCs; format: cell-based, human; conditions: for inhibition at 1 µM: Homo sapiens, hPBMCs stimulated with anti-CD3, read-out: % Inhibition of Proinflammatory Cytokine Production at 1 uM, IL-17F
Experimental: as §1, §2

IL-21 = assay: Inhibition of IL-21 production from anti-CD3-stimulated hPBMCs; format: cell-based, human; conditions: for inhibition at 1 µM: Homo sapiens, hPBMCs stimulated with anti-CD3, read-out: % Inhibition of Proinflammatory Cytokine Production at 1 uM, IL-21
Experimental: as §1, §2

IL-23 = assay: Inhibition of IL-23 production from anti-CD3-stimulated hPBMCs; format: cell-based, human; conditions: for inhibition at 1 µM: Homo sapiens, hPBMCs stimulated with anti-CD3, read-out: % Inhibition of Proinflammatory Cytokine Production at 1 uM, IL-23
Experimental: as §1, §2

[2] = hPBMCs stimulated with anti-CD3

Sequence of PI3K p110α (P42336 whole entry, canonical isoform): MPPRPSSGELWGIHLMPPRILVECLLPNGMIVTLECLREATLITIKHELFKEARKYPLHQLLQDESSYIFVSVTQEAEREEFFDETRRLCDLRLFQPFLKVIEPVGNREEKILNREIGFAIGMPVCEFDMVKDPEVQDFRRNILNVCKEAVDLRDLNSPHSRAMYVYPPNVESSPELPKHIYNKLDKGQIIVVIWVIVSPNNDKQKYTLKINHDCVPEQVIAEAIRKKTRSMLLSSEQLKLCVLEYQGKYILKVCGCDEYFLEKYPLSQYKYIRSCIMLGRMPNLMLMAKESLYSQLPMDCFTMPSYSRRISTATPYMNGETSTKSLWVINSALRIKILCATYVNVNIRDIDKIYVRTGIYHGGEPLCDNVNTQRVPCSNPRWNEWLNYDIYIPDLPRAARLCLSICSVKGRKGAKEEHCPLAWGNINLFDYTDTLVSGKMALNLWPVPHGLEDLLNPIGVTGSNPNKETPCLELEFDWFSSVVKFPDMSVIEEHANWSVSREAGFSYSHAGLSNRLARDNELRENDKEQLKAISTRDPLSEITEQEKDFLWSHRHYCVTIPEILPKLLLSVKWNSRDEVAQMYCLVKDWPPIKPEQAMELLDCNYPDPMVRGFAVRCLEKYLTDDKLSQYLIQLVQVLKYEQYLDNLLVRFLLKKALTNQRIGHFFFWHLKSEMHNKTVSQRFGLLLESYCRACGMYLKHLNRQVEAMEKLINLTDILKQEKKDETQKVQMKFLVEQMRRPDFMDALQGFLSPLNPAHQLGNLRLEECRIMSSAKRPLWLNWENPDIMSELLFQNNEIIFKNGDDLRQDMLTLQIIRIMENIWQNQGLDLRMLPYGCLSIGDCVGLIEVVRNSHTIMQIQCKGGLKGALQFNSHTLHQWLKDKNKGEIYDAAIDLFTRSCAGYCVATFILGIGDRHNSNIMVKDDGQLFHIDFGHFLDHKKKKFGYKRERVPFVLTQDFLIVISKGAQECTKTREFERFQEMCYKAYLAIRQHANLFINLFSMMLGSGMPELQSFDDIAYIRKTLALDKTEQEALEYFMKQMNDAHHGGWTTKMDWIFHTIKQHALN
Sequence of PI3K p110α (P27986 whole entry partner, canonical isoform): as the sequence (P27986 whole entry partner, canonical isoform) above
Sequence of PI3K p110β (P42338 whole entry, canonical isoform): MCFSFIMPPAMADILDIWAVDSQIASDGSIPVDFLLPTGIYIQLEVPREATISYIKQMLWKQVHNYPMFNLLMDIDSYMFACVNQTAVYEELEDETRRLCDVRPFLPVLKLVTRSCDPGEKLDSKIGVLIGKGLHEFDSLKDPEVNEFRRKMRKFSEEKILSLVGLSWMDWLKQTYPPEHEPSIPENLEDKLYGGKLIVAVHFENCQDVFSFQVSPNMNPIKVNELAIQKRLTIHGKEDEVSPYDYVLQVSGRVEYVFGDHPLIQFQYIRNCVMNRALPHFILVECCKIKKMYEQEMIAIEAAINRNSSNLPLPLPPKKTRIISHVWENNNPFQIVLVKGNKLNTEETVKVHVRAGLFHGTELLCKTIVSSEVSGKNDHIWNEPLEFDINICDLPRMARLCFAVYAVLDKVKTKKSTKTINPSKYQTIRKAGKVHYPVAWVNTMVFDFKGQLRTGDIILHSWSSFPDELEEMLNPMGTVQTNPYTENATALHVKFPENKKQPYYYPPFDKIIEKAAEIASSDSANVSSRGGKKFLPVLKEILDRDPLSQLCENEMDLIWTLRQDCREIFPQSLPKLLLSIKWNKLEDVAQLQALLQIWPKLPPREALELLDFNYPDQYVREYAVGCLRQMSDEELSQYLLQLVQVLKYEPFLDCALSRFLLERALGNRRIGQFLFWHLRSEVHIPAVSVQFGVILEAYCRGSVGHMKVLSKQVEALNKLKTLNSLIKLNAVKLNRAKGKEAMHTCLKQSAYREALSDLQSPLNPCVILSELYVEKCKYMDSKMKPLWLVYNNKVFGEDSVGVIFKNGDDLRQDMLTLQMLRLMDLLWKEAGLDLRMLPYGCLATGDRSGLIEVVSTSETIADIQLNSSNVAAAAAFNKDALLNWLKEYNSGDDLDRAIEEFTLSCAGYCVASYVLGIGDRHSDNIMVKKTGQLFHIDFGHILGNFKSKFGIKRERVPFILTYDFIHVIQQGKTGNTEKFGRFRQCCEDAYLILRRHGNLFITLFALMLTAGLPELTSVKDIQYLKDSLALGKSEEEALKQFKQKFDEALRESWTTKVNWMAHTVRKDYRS
Sequence of PI3K p110β (P27986 whole entry partner, canonical isoform): as the sequence (P27986 whole entry partner, canonical isoform) above

Compound	IC50 (PI3K p110α)	IC50 (PI3K p110β)	IC50 (PI3K p110δ)	IC50 (PI3K p110γ)	IC50 (PC3 (Prostate Tumour); Homo sapiens, PC-3)	IC50 (MCF7 (Breast Tumour); Homo sapiens)	IC50 (A549 (Lung Tumour); Homo sapiens)	IC50 ([1]; Fibroblast)	other results
c1cc(-c2nc(N3CCOCC3)c3oc4ncc(CN5CCCCC5)cc4c3n2)c2cc[nH]c2c1 [Compound I, 2-(1H-Indol-4-yl)-4-morpholin-4-yl-8-piperidin-1-ylmethyl-pyrido[3′,2′:4,5]furo[3,2d]pyrimidine]	–	–	–	–	–	–	–	5720 nM	inhibition at 1 µM (TNFα): 61%; inhibition at 1 µM (IFNγ): 80%; inhibition at 1 µM (IL-17A): 95%; inhibition at 1 µM (IL-17F): 95%; inhibition at 1 µM (IL-21): 96%; inhibition at 1 µM (IL-23): 90%
CN(C)C(=O)/C=C/c1cnc2oc3c(N4CCOCC4)nc(-c4cccc5[nH]ccc45)nc3c2c1 [G, (E)-3-[2-(1H-Indol-4-yl)-4-morpholin-4-yl-pyrido[3′,2′:4,5]furo[3,2-d]pyrimidin-8-yl]-N,N-dimethylacrylamide]	223 nM	83 nM	5 nM	1660 nM	3770 nM	127 nM	186 nM	–	–
CN(C)Cc1cnc2oc3c(N4CCOCC4)nc(-c4cccc5[nH]ccc45)nc3c2c1 [H, [2-(1H-Indol-4-yl)-4-morpholin-4-yl-pyrido[3′,2′:4,5]furo[3,2-d]pyrimidin-8-ylmethyl]-dimethyl-amine]	398 nM	63 nM	6 nM	213 nM	3030 nM	165 nM	466 nM	1900 nM	inhibition at 1 µM (TNFα): 75%; inhibition at 1 µM (IFNγ): 87%; inhibition at 1 µM (IL-17A): 99%; inhibition at 1 µM (IL-17F): 96%; inhibition at 1 µM (IL-21): 96%; inhibition at 1 µM (IL-23): 93%
CN1CCN(Cc2cnc3oc4c(N5CCOCC5)nc(-c5cccc6[nH]ccc56)nc4c3c2)CC1 [J, 2-(1H-Indol-4-yl)-8-(4-methyl-piperazin-1-ylmethyl)-4-morpholin-4-yl-pyrido[3′,2′:4,5]furo[3,2-d]pyrimidine]	680 nM	277 nM	26 nM	1040 nM	–	–	–	–	–
c1cc(-c2nc(N3CCOCC3)c3oc4ncc(CN5CCOCC5)cc4c3n2)c2cc[nH]c2c1 [K, 2-(1H-Indol-4-yl)-4-morpholin-4-yl-8-morpholin-4-ylmethyl-pyrido[3′,2′:4,5]furo[3,2-d]pyrimidine]	355 nM	64 nM	6 nM	2610 nM	3340 nM	352 nM	682 nM	3020 nM	–
COCCN(C)Cc1cnc2oc3c(N4CCOCC4)nc(-c4cccc5[nH]ccc45)nc3c2c1 [L, [2-(1H-Indol-4-yl)-4-morpholin-4-yl-pyrido[3′,2′:4,5]furo[3,2-d]pyrimidin-8-ylmethyl]-(2-methoxy-ethyl)-methyl-amine]	604 nM	111 nM	21 nM	1820 nM	3240 nM	119 nM	1600 nM	–	–
N#CCCN1CCN(Cc2cnc3oc4c(N5CCOCC5)nc(-c5cccc6[nH]ccc56)nc4c3c2)CC1 [R, 3-{4-[2-(1H-Indol-4-yl)-4-morpholin-4-yl-pyrido[3′,2′:4,5]furo[3,2-d]pyrimidin-8-ylmethyl]-piperazin-1-yl}-propionitrile]	597 nM	131 nM	22 nM	2540 nM	–	–	–	–	–
(E)-1-(4-Methyl-piperazin-1-yl)-3-[4-morpholin-4-yl-2-(1H-pyrrolo[2,3-b]pyridin-4-yl)-pyrido[3′,2′:4,5]furo[3,2-d]pyrimidin-8-yl]-propenone	127 nM	109 nM	6 nM	269 nM	–	–	–	–	% Inhibition of Proinflammatory Cytokine Production at 1 uM, TNFα (TNFα): 74%; % Inhibition of Proinflammatory Cytokine Production at 1 uM, IFNγ (IFNγ): 67%; % Inhibition of Proinflammatory Cytokine Production at 1 uM, IL-17A (IL-17A; [2]): 77%; % Inhibition of Proinflammatory Cytokine Production at 1 uM, IL-17F (IL-17F; [2]): 74%; % Inhibition of Proinflammatory Cytokine Production at 1 uM, IL-21 (IL-21; [2]): 82%; % Inhibition of Proinflammatory Cytokine Production at 1 uM, IL-23 (IL-23; [2]): 93%; IC50 [1]: 2240 nM; IC50 (PC3 (Prostate Tumour)): 7290 nM; IC50 (MCF7 (Breast Tumour)): 215 nM; IC50 (A549 (Lung Tumour)): 1150 nM

The remaining compounds from weak to strong by IC50 (PI3K p110α), led by results:

IC50 (PI3K p110α)	IC50 (PI3K p110β)	IC50 (PI3K p110δ)	IC50 (PI3K p110γ)	IC50 (PC3 (Prostate Tumour); Homo sapiens, PC-3)	IC50 (MCF7 (Breast Tumour); Homo sapiens)	IC50 (A549 (Lung Tumour); Homo sapiens)	Compound	IC50 ([1]; Fibroblast)	other results
159 nM	19 nM	6 nM	317 nM	1340 nM	145 nM	229 nM	c1cc(-c2nc(N3CCOCC3)c3oc4ncccc4c3n2)c2cc[nH]c2c1 [B, 2-(1H-Indol-4-yl)-4-morpholin-4-yl-pyrido[3′,2′:4,5]furo[3,2-d]pyrimidine]	817 nM	inhibition at 1 µM (TNFα): 26%; inhibition at 1 µM (IFNγ): 73%; inhibition at 1 µM (IL-17A): 99%; inhibition at 1 µM (IL-17F): 96%; inhibition at 1 µM (IL-21): 96%; inhibition at 1 µM (IL-23): 94%
104 nM	57 nM	33 nM	103 nM	–	–	–	c1cnc2oc3c(N4CCOCC4)nc(-c4ccnc5[nH]ccc45)nc3c2c1 [D, 4-Morpholin-4-yl-2-(1H-pyrrolo[2,3-b]pyridin-4-yl)-pyrido[3′,2′:4,5]furo[3,2-d]pyrimidine]	–	–
96 nM	25 nM	10 nM	219 nM	–	–	–	c1cc(-c2nc(N3CCOCC3)c3oc4ncc(N5CCOCC5)cc4c3n2)c2cc[nH]c2c1 [M, 2-(1H-Indol-4-yl)-4,8-di-morpholin-4-yl-pyrido[3′,2′:4,5]furo[3,2-d]pyrimidine]	1610 nM	–
88 nM	69 nM	7 nM	627 nM	–	–	–	c1cc(-c2cnc3oc4c(N5CCOCC5)nc(-c5cccc6[nH]ccc56)nc4c3c2)c2cc[nH]c2c1 [E, 2,8-Bis-(1H-indol-4-yl)-4-morpholin-4-yl-pyrido[3′,2′:4,5]furo[3,2-d]pyrimidine]	–	–
54 nM	137 nM	15 nM	873 nM	3010 nM	331 nM	151 nM	c1cc(-c2nc(N3CCOCC3)c3sc4ncccc4c3n2)c2cc[nH]c2c1 [A, 2-(1H-Indol-4-yl)-4-morpholin-4-yl-pyrido[3′,2′:4,5]thieno[3,2-d]pyrimidine]	1350 nM	–
